Each structure is given as a SMILES string.

Consider five molecules from patent US6818631B1, “Fungicidal pyrimidine derivatives” (Nippon Soda Co. Ltd., priority 2003, dated 2004).

Molecule `C#CCOc1nc(-n2ccnc2)c(I)c(C(F)(F)F)n1` [Example 13, 4-Imidazol-1-yl-5-iodo-2-prop-2-ynyloxy-6-trifluoromethyl-pyrimidine] came in with a melting point of 128 to 129 °C.
The value for `O=C1CCCN1c1nc(-n2ccnc2)c(I)c(C(F)(F)F)n1` [Example 14, 1-(4-Imidazol-1-yl-5-iodo-6-trifluoromethylpyrimidin-2-yl)-pyrrolidin-2-one] was 195 to 197 °C; that for `CSc1nc(-c2nn[nH]n2)c(I)c(C(F)(F)F)n1` [Example 15, 5-Iodo-2-methylthio-4-(2H-tetrazol-5-yl)-6-trifluoromethyl-pyrimidine] was 196 to 200 °C; that for `C#Cc1c(-n2ccnc2)nc(C)nc1C(F)(F)F` [Example 18, 5-Ethynyl-4-imidazol-1-yl-2-methyl-6-trifluoromethylpyrimidine] was 121 to 122 °C.
In the case of `Fc1c(-n2ccnc2)nc(-n2ccnc2)nc1C(F)(F)F` [Example 19, 5-Fluoro-2,4-diimidazol-1-yl-6-trifluoromethylpyrimidine], the melting point was 142 to 150 °C (dec.).

Usually melting point stands for the temperature of the solid-liquid transition.
